These results are taken from publication PMC7076515, “Impact of Mucin on Drug Diffusion: Development of a Straightforward In Vitro Method for the Determination of Drug Diffusivity in the Presence of Mucin” (Pharmaceutics, 2020).

SMILES strings stand for the structures. “Also recorded” adds a separate entry of the source.

By pKa is commonly meant the negative logarithm of the acid dissociation constant.

Data set [1] is described as follows: UV-visible localized spectroscopy: drug diffusion coefficient in water (D0). The note with it: no mucin; drug in PBS 65 mOsm/kg pH 7.4 injected into water; 23–25 °C; average of two parallel experiments.
In data set [2] the test system is mucin from porcine stomach type III. Nature of the data set: UV-visible localized spectroscopy: diffusion from mucin dispersions into water (Drel), and of mucin itself. The data set is classed as physicochemical. As to conditions: compared to the absence of mucin. An excerpt: Mucin type III from porcine stomach was dispersed in PBS 65 mOsm/kg (pH 7.4) to obtain 0.1, 0.3 and 0.6% (w/w) mucin dispersions.
In brief, Fick’s second law of diffusion was analytically solved (Equation (1)) assuming times (t) and positions (x) such that t ≪ h2/D and x ≪ h (where h is the full length of the cuvette occupied by water, 3.30 cm). […] (1) c(x,t)=2A/π e^−x^2/2σ^2+4Dt/2σ^2+4Dt

On the set-up of data set [3]: method as in Drugbank [15]. The note with it: ref Drugbank [15], cited from earlier work.
Data set [4] has as its system purified gastric mucin type II. Also on record: method as in PMID 9188047, PMID 9487548. As to conditions: ref [24],[25]; cited from earlier work.
On the set-up of data set [5]: method as in PMID 9188047, PMID 9487548. The note with it: ref [24],[25]; cited from earlier work.

As for `CC(C)NCC(O)COc1ccc(CC(N)=O)cc1` (stereo not shown) [ATN, Atenolol], the “D0 (diffusion coefficient in plain water)” value in data set [1] was 5.81 10^−6 cm^2/s. Further, the “D Reduction (%)” value in data set [2] (MUC 0.0%) worked out at 0%; in data set [2] (MUC 0.1% w/w) it was 24%; in data set [2] (MUC 0.3% w/w), 47%; in data set [2] (MUC 0.6% w/w) it was 63%.

For the molecule `Cn1c(=O)c2c(ncn2C)n(C)c1=O` [CAF, caffeine], the “D0 (diffusion coefficient in plain water)” value in data set [1] is 9.07 10^−6 cm^2/s. For the same molecule, the “Charge at pH 7.4” value in data set [3] was 0. Further, the “D Reduction (%)” value in data set [2] (MUC 0.0%) worked out at 0%; in data set [2] (MUC 0.1% w/w), 33%; in data set [2] (MUC 0.3% w/w), 51%; in data set [2] (MUC 0.6% w/w), 67%.

For `C[C@]12CCC(=O)C=C1CC[C@@H]1[C@@H]2[C@@H](O)C[C@@]2(C)[C@H]1CC[C@]2(O)C(=O)CO` [HYD, hydrocortisone], in data set [1], the “D0 (diffusion coefficient in plain water)” value is given as 6.44 10^−6 cm^2/s. Also, the “Charge at pH 7.4” value in data set [3] was 0. In addition, the pKa in data set [3] is listed as 12.6. In data set [4], the “Diffusion in purified gastric mucin versus phosphate buffer” value was “comparable to the one in phosphate buffer; also recorded: not hindered compared to phosphate buffer”. The “D Reduction (%)” value in data set [2] (MUC 0.0%) is recorded as 0%; in data set [2] (MUC 0.1% w/w), 17%; in data set [2] (MUC 0.3% w/w) it was 36%; in data set [2] (MUC 0.6% w/w) it was 37%. The “Diffusion in native pig intestinal mucus” value in data set [5] is “impaired to a higher extent; also recorded: slow down the diffusion”.

Turning to `COc1ccc2cc([C@H](C)C(=O)O)ccc2c1` [NPR, naproxen], the “D0 (diffusion coefficient in plain water)” value in data set [1] is given as 8.02 10^−6 cm^2/s. The “D Reduction (%)” value in data set [2] (MUC 0.0%) was 0%; in data set [2] (MUC 0.1% w/w) it was 25%; in data set [2] (MUC 0.3% w/w), 53%; in data set [2] (MUC 0.6% w/w), 65%.
